From EPA's ToxValDB 9.5 (doi:10.2903/j.efsa.2020.6230)
≈ marks a conversion by molar mass, not a printed value.

Experiments:
Oncorhynchus mykiss = settings: for LC50: acute, duration: 96 hours, mortality
Rattus norvegicus = settings: acute; oral; mortality
Pleurozium sp. = settings: acute; duration: 72 hours; growth
Aphidius rhopalosiphi = experiment: LR50; higher = less toxic; settings: not reported; mortality
Apis mellifera = settings: acute, duration: 48 hours, mortality
Anas platyrhynchos = settings: reproductive
Oryctolagus sp. = settings: developmental; development
Mus musculus = settings: acute; oral; mortality
Tagia sp. = settings: chronic/long-term; reproduction
Colinus virginianus = settings: acute; oral; mortality
Salmo salar = settings: acute; duration: 96 hours; mortality
Daphnia magna = settings: chronic/long-term; duration: 28 days; reproduction
Folsomia candida = settings: chronic/long-term; reproduction

Structure (SMILES) | LC50 (Oncorhynchus mykiss) | LD50 (Rattus norvegicus) | NOEC (Pleurozium sp.) | LR50 (Aphidius rhopalosiphi) | LD50 (Apis mellifera; dermal) | LD50 (Apis mellifera; oral, unspecified) | NOEL (Anas platyrhynchos) | NOAEL (Oryctolagus sp.) | NOEC (Oncorhynchus mykiss; chronic/long-term, duration: 95 days, growth) | LD50 (Mus musculus) | NOEC (Tagia sp.) | LD50 (Colinus virginianus) | LC50 (Salmo salar) | NOEC (Daphnia magna) | NOEC (Folsomia candida)
O=C1NC(=O)C2CC=CCC12 (configuration not stated) [1,2,3,6-Tetrahydrophthalimide] | > 120 µg/mL | ≥ 1470 mg/kg-day | – | – | – | – | – | – | – | – | – | – | – | – | –
NC(=O)C1CC=CCC1C(=O)O (configuration not stated) [6-[Hydroxy(imino)methyl]cyclohex-3-ene-1-carboxylic acid] | > 120 µg/mL | – | 32 mg/L | – | – | – | – | – | – | – | – | – | – | – | –
O=C1C2CC=CCC2C(=O)N1SC(Cl)(Cl)Cl (configuration not stated) [Captan] | 0.0147 µg/mL (≈ 0.0489 µM) | – | – | > 3200 g/ha | > 200 µg/piece | > 100 µg/piece | 74.4 mg/kg-day | 20 mg/kg-day | 0.2 mg/L | 3720 mg/kg-day | 7.3 mg/kg | > 2000 mg/kg-day | 0.0913 µg/mL (≈ 0.304 µM) | 0.4 mg/L | 100 mg/kg
